Patent publication US7285528B2, “Agonists and antagonists of gonadotropin-releasing hormone-2, and use thereof” (priority 2002, dated 2007)
Where a SMILES comes first, the peptide text is derived from it. [ ]: non-standard residue; d: D form. dPhe(4-Cl) = N[C@H](Cc1ccc(Cl)cc1)C(=O)O; d2Nal = N[C@H](Cc1ccc2ccccc2c1)C(=O)O; dCit = NC(=O)NCCC[C@@H](N)C(=O)O; d3Pal = N[C@H](Cc1cccnc1)C(=O)O

How the values were obtained:
[1] = system: bfGnRHR-2; assay: Inhibition of GnRH-2-induced IP production, GH3 cells expressing bfGnRHR-2; format: cell-based, bullfrog
Experimental: (§1) GH3 cell lines were obtained from the Cell Line Bank at the Cancer Research Center, Seoul National University College of Medicine, located in Seoul, Republic of Korea. The GH3 cell lines were infected with retroviruses comprising genes encoding bfGnRHR-1, bfGnRHR-2, and bfGnRHR-3 which are bullfrog GnRH receptors, and rat GnRHR, and cell lines expressing each of these receptors were obtained. The GH3 cells expressing bfGnRHR-1, bfGnRHR-2, bfGnRHR-3, and rat GnRHR were cultured on 12-well plates. After 24 hours, the cells were cultured again for 24 hours in a media containing no inositol, to which H^3-myoinositol was added. The resultant cells were washed with buffer A (140 mM NaCl, 20 mM HEPES, 4 mM KCl, 8 mM D-Glucose, 1 mM MgCl2, 1 mM CaCl2, 1 mg/ml BSA) and then cultured in buffer A containing 10 mM LiCl at 37°C. for 30 minutes. Thereafter, they were treated with GnRH having a suitable concentration, cultured at 37° C. for another 30 minutes, and then the media was eliminated. The cells were treated with 10 mM of ice-cold formic acid to terminate the reaction, and the cell extracts were mixed with Dowex anionic exchange resins. These resins were washed with distilled water, IP was extracted with 1 M ammonium formate/0.1 M formic acid, and cpm (count per minute) was determined.

[2] = target: T1, rat GnRHR (Rattus norvegicus, UniProt P30969); assay: Ligand-receptor binding assay, I125-GnRH-2 competition, membranes of GH3 cells expressing rat GnRHR; conditions: log of IC50 (negative values); competition with I125-GnRH-2, 4° C., 16 hours; read-out: Binding affinity (log IC50 value) (converted)
T1 construct: expressed in transfected cells; host or cells: GH3 cells, retrovirus-mediated infection
T1 sequence (P30969 1-327): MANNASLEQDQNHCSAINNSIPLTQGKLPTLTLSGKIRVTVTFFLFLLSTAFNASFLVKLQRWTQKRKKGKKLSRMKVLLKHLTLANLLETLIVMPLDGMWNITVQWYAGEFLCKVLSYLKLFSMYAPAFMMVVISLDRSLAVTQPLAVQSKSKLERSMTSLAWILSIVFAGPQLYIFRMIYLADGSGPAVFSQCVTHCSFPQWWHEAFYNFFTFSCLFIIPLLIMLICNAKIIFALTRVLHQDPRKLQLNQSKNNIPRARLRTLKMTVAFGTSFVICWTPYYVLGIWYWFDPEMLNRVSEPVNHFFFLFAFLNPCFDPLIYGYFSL
Experimental: To determine the binding affinity between GnRH and GnRH receptors, GnRH-2 was radiolabeled with I^125. […] After 48 hours, the cells were homogenized to obtain cellular membranes, which were then dissolved in binding buffer (40 mM Tris, pH 7.4, 2 mM MgCl2). 20 μg of membrane proteins were reacted with I^125-GnRH-2 at 4° C. for 16 hours. […] After the reaction was completed, 1^125-GnRH-2 bound to the receptors was filtered using a Brandel harvester, and cpm was measured using a γ-counter.

[3] = system: Primate GnRH-2 receptor; assay: Inhibition of GnRH-2-induced c-fos-luc luciferase activity, cells expressing Primate GnRH-2 receptor; format: cell-based, Primates
Experimental: Complimentary DNA (cDNA) for a Primate GnRH-2 receptor was obtained from a CV-1 cell genome. […] Plasmids having Primate GnRH-2 receptors where transfected into CV-1 cells. To assay the activity of the receptor, c-fos-luc where a luciferase gene is fused with a c-fos promoter was co-transfected as a probe gene. After 48 hours from transfection, the cells were treated with GnRH-2 agonists and then the activity of luciferase was assayed (Seong et al., Endocrinology vol 144 2003, 454-466). In the same manner as in 2-3 above, Primate GnRH-2 receptors were co-transfected along with c-fos-luc reporter genes, and after 48 hours, GnRH-2 and GnRH-2 antagonists were treated thereinto at the same time and then the effect of GnRH-2 antagonists was observed. […] Log IC50 value by antagonists is an average value of experiments that were conducted independently three times. ND stands for “not detected” which means that there are no inhibitory functions.

[4] = target: T1, rat GnRHR; assay: Inhibition of GnRH-induced IP production, GH3 cells expressing rat GnRHR; format: cell-based; conditions: rat GnRH receptors
Experimental: as §1

[5] = system: bfGnRHR-3; assay: Inhibition of GnRH-2-induced IP production, GH3 cells expressing bfGnRHR-3; format: cell-based, bullfrog
Experimental: as §1

[6] = system: bfGnRHR-3; assay: Ligand-receptor binding assay, I125-GnRH-2 competition, membranes of GH3 cells expressing bfGnRHR-3; set-up: species or system bullfrog; conditions: log of IC50 (negative values); competition with I125-GnRH-2, 4° C., 16 hours
Experimental: To determine the binding affinity between GnRH and GnRH receptors, GnRH-2 was radiolabeled with I^125. The GH3 cells expressing bfGnRHR-1, bfGnRHR-2, bfGnRHR-3, and rat GnRHR constructed in Example 2-3 above were cultured on 100-mm dishes. After 48 hours, the cells were homogenized to obtain cellular membranes, which were then dissolved in binding buffer (40 mM Tris, pH 7.4, 2 mM MgCl2). 20 μg of membrane proteins were reacted with I^125-GnRH-2 at 4° C. for 16 hours. […] After the reaction was completed, 1^125-GnRH-2 bound to the receptors was filtered using a Brandel harvester, and cpm was measured using a γ-counter.
The GH3 cells expressing bfGnRHR-3 obtained from Example 6-1 above were treated with l^125GnRH-2 and GnRH-2 agonists and antagonists at various concentrations to determine the binding affinity of GnRH-2 agonists and antagonists toward the receptors.

[7] = log of IC50 (negative values), half-maximal inhibition of IP production induced by GnRH-2 (1 nM, 10 nM elsewhere in the source)
[8] = reduction of IP production induced by 1 nM GnRH-2

**Q.** `CC(=O)N[C@H](Cc1ccc2ccccc2c1)C(=O)N[C@H](Cc1ccc(Cl)cc1)C(=O)N[C@H](Cc1cccnc1)C(=O)N[C@@H](CO)C(=O)N[C@@H](Cc1ccc(O)cc1)C(=O)N[C@H](CCCNC(N)=O)C(=O)N[C@@H](Cc1c[nH]c2ccccc12)C(=O)N[C@@H](Cc1ccc(O)cc1)C(=O)N1CCC[C@H]1C(=O)N[C@H](C)C(N)=O` [Trptorelix-1, Ac-D2Nal-(4Cl)D-Phe-D-3Pal-Ser-Tyr-D-Cit-Trp-Tyr-Pro-DAlaNH2] (Ac-[d2Nal][dPhe(4-Cl)][d3Pal]SY[dCit]WYP[dA]-NH2) was tested. Which “Log IC50” value [1, 7] did it give?
**A.** The value was −8.10 ± 0.08.

**Q.** What about the “fold more sensitive than Cetrorelix” value [1, 8] of the same compound?
**A.** The value was 100 fold.

**Q.** And the “IP production by antagonist alone” value ([1]; without GnRH-2)?
**A.** Its value is “production of IP was not observed”.

**Q.** What about the IC50 [2] of the same compound?
**A.** Its IC50 is 1.78 pM.

**Q.** What about the “effect on luciferase activity induced by GnRH-2” value ([3]; GnRH-2 and antagonist treated at the same time) of the same compound?
**A.** The value was “reduced in a concentration-dependent manner”.

**Q.** What about the “Log IC50” value ([3]; log of IC50 (negative values), reporter c-fos-luc, GnRH-2-induced luciferase, average of three experiments, ND = not detected, no inhibitory functions) of the same compound?
**A.** Its value is −5.74 ± 0.10.

**Q.** And the “fold lower effect than Cetrorelix” value [4]?
**A.** Its value is roughly 60 fold.

**Q.** And the “Log IC50” value [5, 7]?
**A.** Its value is −8.49 ± 0.11.

**Q.** And the “fold more sensitive than Cetrorelix” value [5, 8]?
**A.** The value was “about 1000 fold”.

**Q.** What about the “IP production by antagonist alone” value ([5]; without GnRH-2) of the same compound?
**A.** The value was “production of IP was not observed”.

**Q.** What about the “Binding affinity (log IC50 value)” value [6] of the same compound?
**A.** The value was −11.73 ± 0.19.
